Experimental data: patent US5281594A, “Substituted 1-(alkoxyphenyl)piperazines with ons and antihypertensive activity” (The Upjohn Company, priority 1992, dated 1994)
Like-named read-outs stand apart in the source and are kept apart here.

What was measured:
[1] = tested on: dopaminergic neurons in the substantia nigra (SNPC); assay: Dopamine nerve impulse generation: depression of firing of substantia nigra dopamine neurons (agonist); format: in vivo, Sprague-Dawley rats; settings: for Emax / ED50: Rattus norvegicus, Neuron, iv; for Emax: read-out: Agonist Max.: maximal depression of firing; for ED50: read-out: Agonist ED50: dose to depress firing by 50%; for maximal depression on DA cell firing (% of control): 1 mg/kg i.v.
Source text: (§1) 3. Dopamine Nerve Impulse Generation
Dopaminergic agonists, such as apomorphine, depress nerve impulses generated by dopaminergic neurons. Indeed, all full dopamine agonists can completely suppress impulse generation so that the dopamine cells stop firing completely. As the name implies, partial agonists depress impulse generation only partly.
(§2) The activity of two compounds of the invention are compared with other known drugs in their effect on nerve impulse generation. Sprague-Dawley rats weighing between 250-350 g are anesthetized with chloral hydrate (400 mg/kg i.p.). Supplemental doses (50-100 mg/kg) are administered as needed. The fermoral artery and vein are cannulated to measure blood pressure and to permit i.v. administration of drug. Body temperature is maintained at 37° C. using a deltaphase isothermal pad. The animal's head is held in a stereotaxic device and a small burr hole made in the cranium. Extracellular action potentials are recorded with a glass microelectrode (tip size<1μm) filled with pontamine sky blue dye in 2M sodium chloride.
(§3) Dopaminergic neurons are identified by their long duration action potential (>2.5 ms), shape and firing pattern ([…]) according to B. S. Bunney and G. K. Aghajanian "Antipsychotic Drugs and Central Dopaminergic Neurons: A Model for Predicting Therapeutic Efficacy and Incidence of Extrapyramidal Side Effects, In: Predictability in Psychopharmacology: Preclinical and Clinical Correlates, eds.", Raven Press, N.Y., pp. 225-245 (1975). […] Watson "The Rat Brain in Stereotaxic Coordinates", Academic Press, Sydney (1982).
(§4) At the termination of each recording session, the location of the cell in the substantia nigra is identified by passing 10 μA cathodic current through the recording electrode for 10-20 minutes. The brain is then removed, fixed in 10% formalin, sectioned and stained, and the pontamine sky blue deposit verified in each animal.
(§5) All drug solutions are made in distilled water. Each drug injection contained no more than 0.15 ml of a given concentration, followed by a 0.2-0.4 ml of physiological saline to clean the catheter of any residual drug. Drug effects are measured as changes in firing rates as indicated by an integrated output throughout the experiment.

D2 receptor [2] = biological target: T1, D2 receptor (Rattus norvegicus, UniProt P61169); assay: biochemical; format: binding; settings: for binding to dopamine receptors (in words): at concentrations as high as 1,000 nM (m-tolyl) and 10,000 nM (p-methoxyphenyl), respectively
T1 sequence (P61169 whole entry): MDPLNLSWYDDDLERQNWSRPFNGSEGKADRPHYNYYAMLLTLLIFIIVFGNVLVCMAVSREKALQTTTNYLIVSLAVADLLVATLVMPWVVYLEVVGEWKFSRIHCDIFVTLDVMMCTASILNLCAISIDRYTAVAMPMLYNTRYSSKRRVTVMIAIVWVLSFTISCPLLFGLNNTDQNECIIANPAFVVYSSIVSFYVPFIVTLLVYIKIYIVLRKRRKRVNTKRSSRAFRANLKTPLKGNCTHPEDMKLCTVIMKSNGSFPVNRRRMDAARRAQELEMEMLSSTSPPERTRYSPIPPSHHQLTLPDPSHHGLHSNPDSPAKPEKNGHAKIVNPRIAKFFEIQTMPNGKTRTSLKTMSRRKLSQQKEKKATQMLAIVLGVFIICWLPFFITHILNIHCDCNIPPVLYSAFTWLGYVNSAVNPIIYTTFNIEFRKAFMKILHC
Experimental: The compounds of the invention are tested in a series of assays known by those skilled in the art as predictive for activity as dopamine partial agonists. […] Drugs. […] Except as otherwise stated, all other chemicals are widely available from commercial sources.
1. Dopamine Receptor Binding
Since a dopamine partial agonist must bind to the dopamine receptor, binding studies are used to determine the affinity of a compound for the receptor. […] The dopamine receptor affinity of the prior art compounds is compared to two compounds of the present invention following the procedure described in R. H. Roth. Comm. […] Compounds are tested at least four concentrations in triplicate. Non-specific binding is determined using 1 uM thioridazine.

[3] = tested on: dopamine receptor within the central nervous system; assay: Block of apomorphine-induced cage climbing; format: in vivo, CF-1 mice; settings: i.p., 25 minutes before apomorphine HCl 2.5 mg/kg i.p.; i.a. = inactive at top dose of 50 mg/kg
Experimental: Administration to mice stimulates dopaminergic receptors which results in enhanced locomotor activity, including climbing up the sides of wire cages. […] As a specific measure of their antagonistic effect, both the prior art compounds and the compounds of the invention are tested in their ability to block agonist-induced locomotor activity. […] During this time, mice that climb the walls more than half-way to the top (6") are removed from the cage. […] Co., New York, N.Y., p.

[4] = tested on: dopaminergic neurons in the substantia nigra (SNPC); assay: Dopamine nerve impulse generation: reversal of amphetamine-induced depression of firing (antagonist); format: in vivo, Sprague-Dawley rats; settings: for ED50: Rattus norvegicus, Neuron, iv, read-out: Antagonist ED50: dose to reverse amphetamine by 50%
Source text: as §1
Dopamine partial agonists act as dopamine antagonists when dopaminergic activity is excessive. Excessive dopaminergic activity can be induced by amphetamine, which causes dopamine to be released at nerve terminals in dopaminergic postsynaptic areas such as the caudate nucleus. This released dopamine activates negative feedback systems connecting postsynaptic dopaminergic areas to dopamine cells (e.g., the caudate nucleus feeds back onto substantia nigra neurons). Through this negative feedback system, amphetamine inhibits nerve impulses in dopamine neurons. Because dopamine antagonists block the access of dopamine to its receptors, these agents block the activation of the negative feedback pathways. Thus, dopamine antagonists and dopamine partial agonists block or reverse amphetamine's depression in dopamine nerve impulse activity. Because dopamine antagonists block not only the dopamine released by amphetamine but also the dopamine released for maintenance of a normal physiological state, dopamine antagonists not only completely reverse the effects of amphetamine but may actually cause an increase in dopamine neuron impulse activity (i.e. reverse amphetamine's inhibition by more than 100%). […] Indeed, partial agonists with higher intrinsic activities only partially reverse the effects of amphetamine.
as §2, §3, §4, §5

[5] = tested on: amphetamine-induced stereotyped behavior; assay: Antagonism of amphetamine-induced stereotyped behavior; format: in vivo, Sprague-Dawley rats; settings: for minimal effective dose: Rattus norvegicus, ip, i.p. 30 minutes before d-amphetamine (10 mg/kg s.c.), read-out: Antagonism amphetamine stereotypy: threshold dose for effect
Source text: Amphetamine releases excessive dopamine and induces a state in animals that serves as a model of positive-symptom schizophrenia. Amphetamine stimulates excessive locomotor activity in the rat, including uncontrolled stereotyped movements, characterized by licking and chewing. This model is indicative of the human response as amphetamine abuse is characterized by schizophrenic-like behavior in humans. Thus compounds may be tested in their ability to antagonize amphetamine.

catalepsy [6] = assay: Catalepsy
catalepsy [7] = settings: rat, in vivo
D2 receptor [8] = biological target: T1, D2 receptor; settings: rat striata; Kohler; cited from earlier work
D2 receptor [9] = settings: PET scanning in humans; Farde; cited from earlier work
[10] = 3H-raclopride, whole rat brain, non-specific binding with 1 uM thioridazine, i.a. = inactive at specified concentration, read-out: Ki (dose for 50% occupation of the receptors)

7-hydroxy-1,2,3,4,4a,5,6,10-octahydrobenzo(f)quinoline [HW-165]
Agonist Max.: maximal depression of firing ([1]; i.v., Table 3): 85% | Agonist ED50: dose to depress firing by 50% ([1]; i.v., i.a. = inactive): 0.18 mg/kg

CCCN1CCCC(c2cccc(O)c2)C1 (single isomer, unassigned; (-)) [(-)-3-PPP, (-)-3-(3-hydroxyphenyl)-N-n-propylpiperidine]
Emax ([1]; Table 3): 70% | ED50 ([1]; i.a. = inactive): 0.086 mg/kg

CCCN(CCC)C1Cc2cccc3cc(O)cc(c23)C1 (single isomer, unassigned; (-)) [(-)-z-(dipropylamino)-2,3-dihydro-1-H-phenalen-5-ol]
Ki (D2 receptor [2]): 0.47 nM

Cc1cccc(N2CCN(CCCN3CCN(c4cccc(Cl)c4)C3=O)CC2)c1 [1-(m-chlorophenyl)-3-[3-[4-(m-tolyl)-1-piperazinyl]propyl]-2-imidazolidinone]
ED50: dose for elimination of climbing behavior in 2 of 4 animals [3]: i.a. | Ki (D2 receptor [2]; [10]): > 1000 nM | binding to dopamine receptors (in words) (D2 receptor [2]): do not bind at all

COc1ccc(N2CCN(CCCN3CCN(c4cccc(Cl)c4)C3=O)CC2)cc1 [1-(m-chlorophenyl)-3-[3-[4-(p-methoxy-phenyl)-1-piperazinyl]propyl]-2-imidazolidinone]
ED50: dose for elimination of climbing behavior in 2 of 4 animals [3]: i.a. | Ki (D2 receptor [2]; [10]): > 10000 nM | binding to dopamine receptors (in words) (D2 receptor [2]): do not bind at all

Cl.O=C1N(CCCN2CCN(c3ccccc3)CC2)CCN1c1ccccc1 [1-phenyl-3-[3-(4-phenyl-1-piperazinyl)propyl]-2-imidazolidinone hydrochloride]
ED50: dose for elimination of climbing behavior in 2 of 4 animals [3]: i.a. | Ki (D2 receptor [2]; read-out: Ki (dose for 50% occupation of the receptors)): 323 nM

CN1CCc2cccc3c2[C@H]1Cc1ccc(O)c(O)c1-3 [Apomorphine]
Antagonist Max.: maximal reversal of amphetamine ([4]; i.v.): 0% | Antagonist ED50: dose to reverse amphetamine by 50% ([4]; i.v., i.a. = inactive): i.a. | Emax ([1]; Table 3): 100% | ED50 ([1]; i.a. = inactive): 0.01 mg/kg

COc1ccccc1N1CCN(CCCCN2CCN(c3ccccc3)C2=O)CC1 [Example 1, 1-[4-[4-(2-methoxyphenyl)-1-piperazinyl]butyl]-3-phenyl-2-imidazolidinone]
ED50 ([4]; i.a. = inactive): 0.04 mg/kg | Antagonist Max.: maximal reversal of amphetamine ([4]; i.v.): 70% | antagonism of amphetamine-induced excessive dopaminergic activity (in words) ([4]; i.v.): only partially antagonized amphetamine | ED50: dose for elimination of climbing behavior in 2 of 4 animals [3]: 12 mg/kg | minimal effective dose [5]: 0.3 mg/kg | antagonism of amphetamine stereotypy, potency relative to haloperidol (in words) ([5]; rat, in vivo): antagonizes amphetamine stereotypy with a potency greater than that of halperidol | maximal depression on DA cell firing (% of control) [1]: 32% | Emax ([1]; Table 3): 36% | ED50 ([1]; i.a. = inactive): 0.016 mg/kg | depression of SNPC cells (in words) ([1]; i.v.): behaved as dopamine partial agonists | Ki (D2 receptor [2]; [10]): 2.6 nM | Catalepsy: threshold dose for effect (catalepsy [6]; defined as 200% increase in time a rat will spend leaning on a box without aid): 10 mg/kg | catalepsy relative to dose blocking amphetamine-induced stereotypy (in words) (catalepsy [6]; rat, in vivo): produces catalepsy only at doses much higher that required to block amphetamine-induced stereotypy

COc1ccccc1N1CCN(CCCCN2CCN(c3cccc(Cl)c3)C2=O)CC1 [Example 2, 1-(3-chlorophenyl)-3-[4-[4-(2-methoxyphenyl)-1-piperazinyl]butyl]-2-imidazolidinone]
ED50 ([4]; i.a. = inactive): 0.343 mg/kg | Antagonist Max.: maximal reversal of amphetamine ([4]; i.v.): 73% | ED50: dose for elimination of climbing behavior in 2 of 4 animals [3]: 42 mg/kg | maximal depression on DA cell firing (% of control) [1]: 54% | further depression of SNPC cells on increasing the dose (in words) ([1]; 3 mg/kg vs 1 mg/kg i.v.): does not further increase the depression in SNPC cells | Emax ([1]; Table 3): 54% | ED50 ([1]; i.a. = inactive): 0.108 mg/kg | depression of SNPC cells (in words) ([1]; i.v.): behaved as dopamine partial agonists | Ki (D2 receptor [2]; [10]): 3.7 nM

O=C(CCCN1CCC(O)(c2ccc(Cl)cc2)CC1)c1ccc(F)cc1 [Haloperidol]
Catalepsy: threshold dose for effect (catalepsy [7]): 1.0 mg/kg | ED50 ([4]; i.a. = inactive): 0.008 mg/kg | Antagonist Max.: maximal reversal of amphetamine ([4]; i.v.): 163% | minimal effective dose [5]: 1 mg/kg | Emax [1]: 0% | Agonist ED50: dose to depress firing by 50% ([1]; i.v., i.a. = inactive): i.a.

Cc1[nH]c2cccc3c2c1C[C@@H]1[C@@H]3C[C@H](NC(=O)C(C)(C)C)CN1C [SDZ 208-911, N-[(8-α)-2,6-dimethyl-ergoline-8-yl]-2,2-dimethylpropanamide]
ED50 [4]: 0.132 mg/kg | Antagonist Max.: maximal reversal of amphetamine ([4]; i.v.): 92% | ED50 [1]: 0.038 mg/kg | Emax [1]: 38%

CN1C[C@@H](NC(=O)C(C)(C)C)C[C@@H]2c3cccc4[nH]c(Cl)c(c34)C[C@H]21 [SDZ 208-912, N-[(8-α)-2-chloro-6-methyl-ergoline-8-yl]-2,2-dimethylpropanamide]
ED50 [4]: 0.115 mg/kg | Antagonist Max.: maximal reversal of amphetamine ([4]; i.v.): 93% | ED50 [1]: 0.021 mg/kg | Emax [1]: 16% | Ki (D2 receptor [2]): 15.7 nM

CCN(CC)C(=O)N[C@H]1C[C@@H]2c3cccc4[nH]cc(c34)C[C@H]2N(C)C1 [TDHL, 1-1-diethyl-3-(6-methyl-8α-ergoline)-urea dihydrogenphosphate]
ED50 [4]: 0.136 mg/kg | Antagonist Max.: maximal reversal of amphetamine ([4]; i.v.): 60% | ED50: dose for elimination of climbing behavior in 2 of 4 animals [3]: 35 mg/kg | ED50 [1]: 0.021 mg/kg | Emax [1]: 53% | Ki (D2 receptor [2]; [10]): 0.95 nM

CCN1CCC[C@H]1CNC(=O)c1c(O)c(Cl)cc(Cl)c1OC [raclopride]
B max (D2 receptor [8]): 23.5 pmoles/g tissue | Bmax (D2 receptor [2]; 3H-raclopride, whole rat brain): 1.6 pmoles/g tissue | binding to the D2 receptor (in words) (D2 receptor [9]): binds to the D2 receptor
